Some results are limits rather than exact numbers.

This is an account of results in ChEMBL document CHEMBL1145055, “A novel class of nonpeptidic biaryl inhibitors of human cathepsin K” (J Med Chem, 2003).

In one assay the target is Cathepsin S (Homo sapiens, UniProt P25774). Kind of assay: In vitro inhibitory activity against human cathepsin S, using 2 uM of Z -Leu-Arg-AMC as substrate.
The target in a further assay is Cathepsin B (Homo sapiens, UniProt P07858). Kind of assay: In vitro inhibitory activity against human cathepsin B, using 2 uM of Z -Leu-Arg-AMC as substrate.
In the next assay the target is Procathepsin L (Homo sapiens, UniProt P07711). The experiment in a line: In vitro inhibitory activity against human cathepsin L, using 2 uM of Z -Leu-Arg-AMC as substrate.
Chain of Procathepsin L (P07711 whole entry): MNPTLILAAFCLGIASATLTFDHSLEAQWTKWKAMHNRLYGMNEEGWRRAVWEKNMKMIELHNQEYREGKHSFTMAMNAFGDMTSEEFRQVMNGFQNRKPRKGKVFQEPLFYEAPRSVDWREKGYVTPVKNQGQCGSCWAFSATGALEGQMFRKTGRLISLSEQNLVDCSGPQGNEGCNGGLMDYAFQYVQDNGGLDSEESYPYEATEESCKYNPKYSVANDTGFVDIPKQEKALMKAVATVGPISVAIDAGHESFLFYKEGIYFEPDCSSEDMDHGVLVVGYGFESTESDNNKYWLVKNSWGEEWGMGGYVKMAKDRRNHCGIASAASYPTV
For another assay, the species on record is Bos taurus. Kind of assay: cells.
The target of assay [1] is T1, Cathepsin K (Homo sapiens, UniProt P43235).
T1 sequence (P43235 whole entry): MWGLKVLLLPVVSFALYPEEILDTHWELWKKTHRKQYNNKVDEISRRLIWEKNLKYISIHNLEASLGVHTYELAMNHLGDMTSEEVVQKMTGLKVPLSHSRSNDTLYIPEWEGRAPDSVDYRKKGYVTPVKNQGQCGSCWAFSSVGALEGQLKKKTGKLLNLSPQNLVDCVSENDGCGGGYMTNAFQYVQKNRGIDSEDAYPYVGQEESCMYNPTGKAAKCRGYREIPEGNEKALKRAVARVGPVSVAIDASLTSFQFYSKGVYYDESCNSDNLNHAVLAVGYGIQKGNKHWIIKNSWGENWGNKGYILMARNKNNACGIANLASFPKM
The experiment in a line: In vitro inhibitory activity against human cathepsin K, using 2 uM of Z -Leu-Arg-AMC as substrate.

Assay [2] addresses T1, Cathepsin K. The experiment in a line: In vitro inhibitory activity against Human Cathepsin K using 2 uM of Z -Leu-Arg-AMC as substrate.
Assay [3] has as its target T2, Cathepsin K (Homo sapiens) (UniProt P43235).
T2 sequence (whole entry): T1 sequence (P43235 whole entry)
Kind of assay: Pre steady state kinetic parameter K off was determined.

Chain of Cathepsin S (P25774 whole entry): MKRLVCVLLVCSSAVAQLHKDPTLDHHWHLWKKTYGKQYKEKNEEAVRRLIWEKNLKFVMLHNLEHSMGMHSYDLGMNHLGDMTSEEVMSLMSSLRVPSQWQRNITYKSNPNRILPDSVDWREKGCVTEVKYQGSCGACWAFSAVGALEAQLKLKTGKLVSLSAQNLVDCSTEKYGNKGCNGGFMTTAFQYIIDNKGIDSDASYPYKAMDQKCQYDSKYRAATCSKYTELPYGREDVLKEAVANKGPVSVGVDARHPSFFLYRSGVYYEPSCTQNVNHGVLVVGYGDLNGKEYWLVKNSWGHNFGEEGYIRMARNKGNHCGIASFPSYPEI
Description for Bos taurus: In vitro Bone resorption; measuring degradation of bovine bone by isolated osteoclasts

Regarding `CC(=O)CN1CCN(c2ccc(-c3cccc(C(CC(C)C)C(=O)NCC#N)c3)cc2)CC1` (stereo not drawn), the IC50 against Cathepsin S is 2360 nM; at Cathepsin B, 550 nM; against Procathepsin L, 2160 nM; in the assay filed under Bos taurus it was 121 nM; against Cathepsin K [1], 10 nM.

With `CC(C)CC(C(=O)NCC#N)c1cccc(-c2ccc(N3CCN(CC(C)(C)O)CC3)cc2)c1` (stereo not drawn), the IC50 against Cathepsin S is greater than 10000 nM; against Cathepsin B, 6370 nM; on Procathepsin L, 9550 nM; in the assay filed under Bos taurus it was 142 nM; against Cathepsin K [1] it was 6 nM.

On to `CC(C)C[C@@H](C(=O)NCC#N)c1cccc(-c2ccc(N3CCNCC3)cc2)c1`, for which the 50% inhibitory concentration (IC50) amounted to 2010 nM against Cathepsin S; 3950 nM on Cathepsin B; 3720 nM against Procathepsin L; 95 nM in the assay listed under Bos taurus; 3 nM against Cathepsin K [1].

On to `CC(C)CC(C(=O)NCC#N)c1cncc(-c2ccccc2)c1` (stereo not drawn), for which the IC50 against Cathepsin S is greater than 10000 nM; at Cathepsin B it was greater than 10000 nM; on Procathepsin L it was 825 nM; in the assay listed under Bos taurus, 1400 nM; against Cathepsin K [1], 142 nM.

`CC(C)CC(C(=O)NCC#N)c1cccc(-c2ccc(C3=CCNCC3)cc2)c1` (stereo not drawn): the half-maximal inhibitory concentration (IC50) against Cathepsin S worked out at 652 nM; on Cathepsin B, 554 nM; against Procathepsin L it was 1680 nM; in the assay listed under Bos taurus, 267 nM; on Cathepsin K [1] it was 57 nM.

`CC(C)CC(C(=O)NC1(C#N)CC1)c1cccc(-c2ccc(N3CCNCC3)cc2)c1` (stereo not drawn) registered a Ki at Cathepsin K [2] of 10 nM. In assay [3], the k off stood at 0.0014 s⁻¹. For the same compound, at Cathepsin K [1], the IC50 worked out at 3 nM.

For the compound `CC(C)CC(C(=O)NCC#N)c1cccc(-c2ccccc2)c1` (stereo not drawn), the half-inhibitory concentration (IC50) was 1580 nM against Cathepsin S; greater than 10000 nM at Cathepsin B; 498 nM at Procathepsin L; 3560 nM in the assay filed under Bos taurus; 56 nM against Cathepsin K [1].

In the case of `CC(C)CC(C(=O)NCC#N)c1cccc(-c2ccc(N3CCN(C)CC3)cc2)c1` (racemic), the IC50 against Cathepsin S came to 1690 nM; against Cathepsin B it was 3840 nM; against Procathepsin L, 4640 nM; in the assay filed under Bos taurus it was 78 nM; against Cathepsin K [1], 8 nM.

By IC50 is commonly meant the concentration that inhibits the measured activity by half. A high value points to weaker potency. As usually defined, the Ki is a dissociation constant, usually derived from enzyme kinetics or from competition with a known ligand. A low value points to tighter binding.
